# Measurements as given in patent publication US7541352B2, “Compounds for the treatment of hepatitis C” (Bristol-Myers Squibb Company, priority 2007, dated 2009).
# pEC50, pIC50: −log10 of the molar value. Where two headings read alike, the source gives them in different places.
# Key:
# [1] = test system: HCV replicon cells; test: HCV replicon FRET assay; type: cell-based; conditions: Hepatitis C virus
# Procedure: FRET Assay Preparation. The HCV FRET screening assay was performed in 96-well cell culture plates. The FRET peptide (Anaspec, Inc.) (Taliani et al., Anal. Biochem. 1996, 240, 60-67) contains a fluorescence donor, EDANS, near one end of the peptide and an acceptor, DABCYL, near the other end. The fluorescence of the peptide is quenched by […] resonance energy transfer (RET) between the donor and the acceptor, but as the NS3 protease cleaves the peptide the products are released from RET quenching and the fluorescence of the donor becomes apparent. The assay reagent was made as follows: 5× cell Luciferase cell culture lysis reagent from Promega (#E153A) diluted to 1× with dH2O, NaCl added to 150 mM final, the FRET peptide diluted to 20 μM final from a 2 mM stock.
# To prepare plates, HCV replicon cells, with or without a Renilla luciferase reporter gene, were trypsinized and plated in a 96-well plate with titrated test compounds added in columns 3 through 12; columns 1 and 2 contained a control compound (HCV control inhibitor), and the bottom row contained cells with DMSO only. The plates were then placed in a CO2 incubator at 37° C.
# Assays. Subsequent to addition of the test compounds described above (FRET Assay Preparation), at various times the plate was removed and Alamar blue solution (Trek Diagnostics, #00-100) was added to measure cellular toxicity. After reading in a Cytoflour 4000 instrument (PE Biosystems), plates were rinsed with PBS and then used for FRET assay by the addition of 30 ul of the FRET peptide assay reagent described above (FRET Assay Preparation) per well. The plate was then placed into the Cytoflour 4000 instrument which had been set to 340 excite/490 emission, automatic mode for up to 20 cycles and the plate read in a kinetic mode. Typically, the signal to noise using an endpoint analysis after the reads was at least three-fold. Alternatively, after Alamar blue reading, plates were rinsed with PBS, then used for luciferase assay using the Promega Dual-Glo Luciferase Assay System or the Promega EnduRen Live Cell Substrate assay.
# Compound analysis was performed by quantification of the relative HCV replicon inhibition and the relative cytotoxicity values. To calculate cytoxicity values, the average Alamar Blue fluorescence signals from the control wells were set as 100% non-toxic. The individual signals in each of the compound test wells were then divided by the average control signal and multiplied by 100% to determine […]. To calculate the HCV replicon inhibition values, an average background value was obtained from the two wells containing the highest amount of HCV control inhibitor at the end of the assay period. These numbers were similar to those obtained from naïve Huh-7 cells. The background numbers were then subtracted from the average signal obtained from the control wells and this number was used as 100% activity. The individual signals in each of the compound test wells were then divided by the averaged control values after background subtraction and multiplied by 100% to determine percent activity. EC50 values were calculated as the concentration which caused a 50% reduction in FRET or luciferase activity. The two numbers generated for the compound plate, percent cytoxicity and percent activity, were used to determine compounds of interest for further analysis.
# [2] = target: T1, HCV NS5B RdRp genotype 1b (Hepatitis C virus genotype 1b, UniProt Q9WMX2); test: Modified HCV NS5B RdRp enzyme assay (preincubation protocol); type: biochemical
# T1 construct: The protein was expressed with an 18 amino acid C-terminal truncation to enhance the solubility; made in house; host or cells: E. coli BL21(DE3), pET21a
# Procedure: HCV NS5B RdRp cloning, expression, and purification. The cDNA encoding the NS5B protein of HCV, genotype 1b, was cloned into the pET21a expression vector. The protein was expressed with an 18 amino acid C-terminal truncation to enhance the solubility. The E. coli competent cell line BL21(DE3) was used for expression of the protein. Cultures were grown at 37° C. for ˜4 hours until the cultures reached an optical density of 2.0 at 600 nm. The cultures were cooled to 20° C. and induced with 1 mM IPTG. Fresh ampicillin was added to a final concentration of 50 μg/ml and the cells were grown overnight at 20° C.
# Cell pellets (3 L) were lysed for purification to yield 15-24 mgs of purified NS5B. The lysis buffer consisted of 20 mM Tris-HCl, pH 7.4, 500 mM NaCl, 0.5% triton X-100, 1 mM DTT, 1 mM EDTA, 20% glycerol, 0.5 mg/ml lysozyme, 10 mM MgCl2, 15 ug/ml deoxyribonuclease I, and Complete TM protease inhibitor tablets (Roche). After addition of the lysis buffer, frozen cell pellets were resuspended using a tissue homogenizer. To reduce the viscosity of the sample, aliquots of the lysate were sonicated on ice using a microtip attached to a Branson sonicator. The sonicated lysate was centrifuged at 100,000×g for 1 hr at 4° C. and filtered through a 0.2 μm filter unit (Corning).
# The protein was purified using two sequential chromatography steps: Heparin sepharose CL-6B and polyu sepharose 4B (Pharmacia). The chromatography buffers were identical to the lysis buffer but contained no lysozyme, deoxyribonuclease I, MgCl2 or protease inhibitor and the NaCl concentration of the buffer was adjusted according to the requirements for charging the protein onto the column. Each column was eluted with a NaCl gradient which varied in length from 5-50 column volumes depending on the column type. After the final chromatography step, the resulting purity of the enzyme is >90% based on SDS-PAGE analysis. The enzyme was aliquoted and stored at −80° C.
# Standard HCV NS5B RdRp enzyme assay. HCV RdRp genotype 1b assays were run in a final volume of 60 μl in 96 well plates (Corning 3600). The assay buffer is composed of 20 mM Hepes, pH 7.5, 2.5 mM KCl, 2.5 mM MgCl2, 1 mM DTT, 1.6 U RNAse inhibitor (Promega N2515), 0.01 mg/ml BSA (Sigma B6917), and 2% glycerol. All compounds were serially diluted (3-fold) in DMSO and diluted further in water such that the final concentration of DMSO in the assay was 2%. HCV RdRp genotype 1b enzyme was used at a final concentration of 28 nM. A polyA template was used at 6 nM, and a biotinylated oligo-dT 12 primer was used at 180 nM final concentration. Template was obtained commercially (Amersham 27-4110). Biotinylated primer was prepared by Sigma Genosys. 3H-UTP was used at 0.6 μCi (0.29 μM total UTP). Reactions were initiated by the addition of enzyme, incubated at 30° C. for 60 min, and stopped by adding 25 μl of 50 mM EDTA containing SPA beads (4 μg/μl, Amersham RPNQ 0007). Plates were read on a Packard Top Count NXT after >1 hr incubation at room temperature.
# Modified HCV NS5B RdRp enzyme assay. A modified enzyme assay was performed essentially as described for the standard enzyme assay except for the following: The biotinylated oligo dT12 primer was precaptured on streptavidin-coated SPA beads by mixing primer and beads in assay buffer and incubating at room temperature for one hour. Unbound primer was removed after centrifugation. The primer-bound beads were resuspended in 20 mM Hepes buffer, pH 7.5 and used in the assay at final concentrations of 20 nM primer and 0.67 μg/μl beads. Order of addition in the assay: enzyme (1.75 nM) was added to diluted compound followed by the addition of a mixture of template (0.36 nM), 3H-UTP (0.6 μCi, 0.29 μM), and primer-bound beads, to initiate the reaction; concentrations given are final. Reactions were allowed to proceed for 4 hours at 30° C.
# IC50 values for compounds were determined using seven different [I]. […]
# [3] = HCV replicon cells, determined using the FRET assay, read-out: EC50
# [4] = HCV NS5B RdRp, determined using the preincubation protocol, read-out: IC50
# T1 sequence (Q9WMX2 2420-2992): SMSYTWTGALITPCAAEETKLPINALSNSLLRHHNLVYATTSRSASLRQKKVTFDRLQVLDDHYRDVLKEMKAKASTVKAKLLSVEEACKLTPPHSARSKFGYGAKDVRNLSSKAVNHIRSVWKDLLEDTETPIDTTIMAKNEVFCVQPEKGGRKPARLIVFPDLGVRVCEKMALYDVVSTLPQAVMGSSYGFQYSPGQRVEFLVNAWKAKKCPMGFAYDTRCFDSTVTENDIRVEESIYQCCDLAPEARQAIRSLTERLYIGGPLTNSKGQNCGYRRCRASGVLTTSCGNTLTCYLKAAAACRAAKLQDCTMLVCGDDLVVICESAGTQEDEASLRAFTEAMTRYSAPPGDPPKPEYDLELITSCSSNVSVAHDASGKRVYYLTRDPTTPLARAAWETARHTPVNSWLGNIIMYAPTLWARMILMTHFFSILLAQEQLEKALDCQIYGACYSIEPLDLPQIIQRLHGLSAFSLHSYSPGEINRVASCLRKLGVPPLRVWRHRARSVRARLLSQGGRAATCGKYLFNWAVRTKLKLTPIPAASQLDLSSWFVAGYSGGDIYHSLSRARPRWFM
Structure (SMILES),"pEC50 [1, 3]","pIC50 [2, 4]",pEC50 [1],pIC50 [2]
COc1ccc2c(c1)CC(NC(=O)C(=O)N(C)C)Cn1c-2c(C2CCCCC2)c2ccc(C(=O)NS(=O)(=O)N(C)C)cc21 (centres unmarked),6.30 to 9.00,6.30 to 9.00,–,–
COc1ccc2c(c1)C1CC1(NC(=O)C(=O)N(C)C)Cn1c-2c(C2CCCCC2)c2ccc(C(=O)NS(=O)(=O)N(C)C)cc21 (centres unmarked),6.30 to 9.00,6.30 to 9.00,–,–
COc1ccc2c(c1)C1CC1(NC(=O)C(=O)N1CCOCC1)Cn1c-2c(C2CCCCC2)c2ccc(C(=O)NS(=O)(=O)N(C)C)cc21 (centres unmarked),6.30 to 9.00,6.30 to 9.00,–,–
COc1ccc2c(c1)C1CC1(NC(=O)C(=O)N1C3CCC1CN(C)C3)Cn1c-2c(C2CCCCC2)c2ccc(C(=O)NS(=O)(=O)N(C)C)cc21 (centres unmarked),–,–,6.30 to 9.00,6.30 to 9.00
COC(=O)C(=O)NC12CC1c1cc(OC)ccc1-c1c(C3CCCCC3)c3ccc(C(=O)NS(=O)(=O)N(C)C)cc3n1C2 (centres unmarked),6.30 to 9.00,6.30 to 9.00,–,–
COc1ccc2c(c1)C1CC1(NC(=O)C(=O)N1CC(C)N(C)C(C)C1)Cn1c-2c(C2CCCCC2)c2ccc(C(=O)NS(=O)(=O)N(C)C)cc21 (centres unmarked),6.30 to 9.00,6.30 to 9.00,–,–
COc1ccc2c(c1)C1CC1(NC(=O)C(=O)N1CCN(C)CC1)Cn1c-2c(C2CCCCC2)c2ccc(C(=O)NS(=O)(=O)N(C)C)cc21 (centres unmarked),6.30 to 9.00,6.30 to 9.00,–,–
COc1ccc2c(c1)C1CC1(NC(=O)C(=O)N1C[C@@H](C)N(C)[C@@H](C)C1)Cn1c-2c(C2CCCCC2)c2ccc(C(=O)NS(=O)(=O)N(C)C)cc21 (some centres unmarked),6.30 to 9.00,6.30 to 9.00,–,–
COc1ccc2c(c1)C1CC1(NC(=O)C(=O)N1CC(OC)C1)Cn1c-2c(C2CCCCC2)c2ccc(C(=O)NS(=O)(=O)N(C)C)cc21 (centres unmarked),6.30 to 9.00,6.30 to 9.00,–,–
COc1ccc2c(c1)[C@@H]1C[C@]1(NC(=O)C(=O)N1CCOCC1c1ccccc1)Cn1c-2c(C2CCCCC2)c2ccc(C(=O)NS(=O)(=O)N(C)C)cc21 (some centres unmarked),6.30 to 9.00,6.30 to 9.00,–,–
COc1ccc2c(c1)C1CC1(N(C)C(=O)C(=O)N1CC(OC)C1)Cn1c-2c(C2CCCCC2)c2ccc(C(=O)NS(=O)(=O)N(C)C)cc21 (centres unmarked),6.30 to 9.00,6.30 to 9.00,–,–
COc1ccc2c(c1)[C@@H]1C[C@]1(N(C)C(=O)C(=O)N1CCOCC1c1ccccc1)Cn1c-2c(C2CCCCC2)c2ccc(C(=O)NS(=O)(=O)N(C)C)cc21 (some centres unmarked),6.30 to 9.00,6.30 to 9.00,–,–
COc1ccc(C2COCCN2C(=O)C(=O)NC23CC2c2cc(OC)ccc2-c2c(C4CCCCC4)c4ccc(C(=O)NS(=O)(=O)N(C)C)cc4n2C3)cc1 (centres unmarked),6.30 to 9.00,6.30 to 9.00,–,–
COc1ccc2c(c1)C1CC1(NC(=O)C(=O)N1CCCN(C)CC1)Cn1c-2c(C2CCCCC2)c2ccc(C(=O)NS(=O)(=O)N(C)C)cc21 (centres unmarked),6.30 to 9.00,6.30 to 9.00,–,–
COc1ccc2c(c1)C1CC1(NC(=O)C(=O)N1CCN3CCC1CC3)Cn1c-2c(C2CCCCC2)c2ccc(C(=O)NS(=O)(=O)N(C)C)cc21 (centres unmarked),6.30 to 9.00,6.30 to 9.00,–,–
COc1ccc2c(c1)CC(NC(=O)C(=O)N1C3CCC1CN(C)C3)Cn1c-2c(C2CCCCC2)c2ccc(C(=O)NS(=O)(=O)N(C)C)cc21 (centres unmarked),–,–,6.30 to 9.00,6.30 to 9.00
COc1ccc2c(c1)C1CC1(NC(=O)C(=O)N(C)C)Cn1c-2c(C2CCCCC2)c2ccc(C(=O)NS(=O)(=O)C(C)C)cc21 (centres unmarked),6.30 to 9.00,6.30 to 9.00,–,–
Cc1ccc2c(c1)C1CC1(NC(=O)C(=O)N(C)C)Cn1c-2c(C2CCCCC2)c2ccc(C(=O)NS(=O)(=O)C3CCC3)cc21 (centres unmarked),6.30 to 9.00,6.30 to 9.00,–,–
CCC(C)S(=O)(=O)NC(=O)c1ccc2c(C3CCCCC3)c3n(c2c1)CC1(NC(=O)C(=O)N(C)C)CC1c1cc(OC)ccc1-3 (centres unmarked),6.30 to 9.00,6.30 to 9.00,–,–
COc1ccc2c(c1)C1CC1(NC(=O)C(=O)N(C)C)Cn1c-2c(C2CCCCC2)c2ccc(C(=O)NS(=O)(=O)CC(C)(C)C)cc21 (centres unmarked),6.30 to 9.00,6.30 to 9.00,–,–
COc1ccc2c(c1)C1CC1(NC(=O)N1C3CCC1CN(C)C3)Cn1c-2c(C2CCCCC2)c2ccc(C(=O)NS(=O)(=O)N(C)C)cc21 (centres unmarked),–,–,6.30 to 9.00,6.30 to 9.00
COc1ccc2c(c1)C1CC1(NS(=O)(=O)N1CCOCC1)Cn1c-2c(C2CCCCC2)c2ccc(C(=O)NS(=O)(=O)N(C)C)cc21 (centres unmarked),6.30 to 9.00,6.30 to 9.00,–,–
COc1ccc(S(=O)(=O)NC23CC2c2cc(OC)ccc2-c2c(C4CCCCC4)c4ccc(C(=O)NS(=O)(=O)N(C)C)cc4n2C3)c(OC)c1 (centres unmarked),6.30 to 9.00,6.30 to 9.00,–,–
COc1ccc2c(c1)C1CC1(NC(=O)N1CC3CN(Cc4ccccc4)CC(C1)N3Cc1ccccc1)Cn1c-2c(C2CCCCC2)c2ccc(C(=O)NS(=O)(=O)N(C)C)cc21 (centres unmarked),–,–,–,6.30 to 9.00
COc1ccc2c(c1)[C@@H]1C[C@]1(NC(=O)N1C3CCC1CN(C)C3)Cn1c-2c(C2CCCCC2)c2ccc(C(=O)NS(=O)(=O)N(C)C)cc21,–,–,6.30 to 9.00,6.30 to 9.00
COc1ccc2c(c1)C1CC1(NS(=O)(=O)C1CCN(C(=O)OCc3ccccc3)CC1)Cn1c-2c(C2CCCCC2)c2ccc(C(=O)NS(=O)(=O)N(C)C)cc21 (centres unmarked),6.30 to 9.00,6.30 to 9.00,–,–
COc1ccc2c(c1)C1C[C@@]1(NC(=O)C(=O)N(C)C)Cn1c-2c(C2CCCCC2)c2ccc(C(=O)NS(=O)(=O)N(C)C)cc21 (some centres unmarked) [drawing 37],6.30 to 9.00,–,–,–
COc1ccc2c(c1)[C@H]1C[C@@]1(NC(=O)C(=O)N(C)C)Cn1c-2c(C2CCCCC2)c2ccc(C(=O)NS(=O)(=O)N(C)C)cc21 [drawing 37],–,6.30 to 9.00,–,–
